Results reported in patent US20070186301A1, “Mutant BDNF gene introducing knockin mouse” (NATIONAL INSTITUTE OF ADVANCED INDUSTRIAL SCIENCE AND …, priority 2006, published 2007).
Entries after “also recorded” stand apart in the source; their conditions may differ.

Legend:
[1] = tested on: mutant BDNF gene-knockin mice; test: Open field (circular field) quantity of activity after etizolam, mutant mice; format: in vivo, mouse; conditions: mutant mice aged 4 to 5 weeks; etizolam solution 0.5 mg/kg intraperitoneally; measured from 5 minutes after administration; p<0.001
Description: (§1) The abnormal behavior in the mutant BDNF gene-knockin mouse was quantitatively analyzed. An emotional change of the mouse is reflected to the quantity of activity and a behavioral pattern of the mouse when the mouse is placed in a novel environment. The mouse was placed in the novel environment which was an inexperienced circular field (a diameter of 50 cm and a wall height of 40 cm in the field) for 25 to 30 minutes, and the quantity of activity in the meantime was compared between the wild type homozygous mice (wild) and the knockin homozygous mice (mutants). The mouse was placed 30 minutes before the experiment in a room in which the circular field had been disposed, and placed calmly in the circular field using a paper box. The activity of the mouse in the circular field was measured by recording using DV-Track video tracking system supplied from Muromachi Kikai.
(§2) Etizolam is a short term action type GABA, a neurotransmission accelerator (reference: Elder C. A. et al.: Drug Metab. Dispos., vol. 23, 776, 1995). […] A protocol was comprising (I) measuring the total quantity of activity in the mouse for 30 minutes after being placed in the open field, (II) intraperitoneally administering PBS or the etizolam solution (0.5 mg/kg) and (III) returning the mouse in the open field after 5 minutes and measuring the quantity of activity for 30 minutes in the mouse. […]

[2] = tested on: wild type mice; test: Open field (circular field) quantity of activity after etizolam, wild type mice; format: in vivo, mouse; conditions: wild type mice aged 4 to 5 weeks; etizolam solution 0.5 mg/kg intraperitoneally; measured from 5 minutes after administration; p<0.05
Description: as §1, §2

[3] = tested on: cerebellar granular nerve cells; test: Harmful action of non-cleavable proBDNF derivative on cerebellar granular nerve cells; format: cell-based
[4] = tested on: cholinergic nerve cells; test: Harmful action of non-cleavable proBDNF derivative on cholinergic nerve cells; format: cell-based

Row | Molecule | effect on abnormal behavior (total behavioral distance / quantity of activity for 30 minutes in the open field) [1] | effect on quantity of activity for 30 minutes in the open field [2] | action on cell death of cerebellar granular nerve cells [3] | action on fibers in cholinergic nerve cells [4]
1 | CCc1cc2c(s1)-n1c(C)nnc1CN=C2c1ccccc1Cl [etizolam] | inhibitory effect; also recorded: remarkably inhibited | certainly effective | – | –
2 | BDNF-ML: non-cleavable human proBDNF derivative protein with R125M and R127L, SEQ ID NO:2 (protein, Non-cleavable human proBDNF mutant) MTILFLTMVISYFGCMKAAPMKEANIRGQGGLAYPGVRTHGTLESVNGPKAGSRGLTSLADTFEHVIEELLDEDQKVRPNEENNKDADLYTSRVMLSSQVPLEPPLLFLLEEYKNYLDAANMSMMVLRHSDPARRGELSVCDSISEWVTAADKKTAVDMSGGTVTVLEKVPVSKGQLKQYFYETKCNPMGYTKEGCRGIDKRHWNSQCRTTQSYVRALTMDSKKRIGWRFIRIDTSCVCTLTIKRGR | – | – | facilitation of cell death | facilitation of dropout of fibers
